We go through 1 compound from ChEMBL document CHEMBL5321282, “Design, Synthesis, and Biological Evaluation of Esculetin-Furoxan-DEAC Ternary Hybrids for Anti-Triple Negative Breast Cancer” (J Med Chem, 2023).

Each structure is given as a SMILES string. Activity calls are given as the source filed them. No cut-off for these calls is given here.

As usually defined, the IC50 is the concentration at which inhibition is half-maximal.

Data set [1] has as its system MDA-MB-231. The data set is described as follows: Induction of mitochondrial membrane potential depolarization in human MDA-MB-231 cells assessed as decrease in red fluorescence at 5 to 20 nM incubated for 24 hrs by JC-1 staining based inverted fluorescent microscopic analysis. The data set is classed as functional, cell-based. Conditions: dose 5-20 nM.
Data set [2] relates to MDA-MB-231. The data set is described as follows: Induction of apoptosis in human MDA-MB-231 cells assessed as increase in CypD level incubated for 8 hrs by Western blotting analysis. The conditions noted are these: dose 5-20 nM. In kind it is functional, cell-based.
For data set [3], the system named is MDA-MB-231. The data set is described as follows: Induction of ROS production in human MDA-MB-231 cells measured after 24 hrs by DCFH-DA staining based fluorescence microscopic analysis. In kind it is functional, cell-based. The conditions noted are these: dose 5-20 nM.
Data set [4] is described as follows: Selectivity index, ratio of IC50 for cytotoxicity against human L02 cells to IC50 for antiproliferative activity against human MDA-MB-231 cells. Conditions: L02 cells versus MDA-MB-231 cells, read-out: Ratio IC50. In kind it is toxicity, cell-based.
Data set [5] relates to MDA-MB-231. The data set is described as follows: Induction of apoptosis in human MDA-MB-231 cells assessed as early apoptotic cells at 10 nM incubated for 24 hrs by Annexin V-FITC/PI staining based flow cytometric analysis (reference value: 4.90%). In kind it is functional. In general terms: Flow cytometry measures light scatter and fluorescence of single cells or particles in a stream.

Data set [6] relates to MDA-MB-231. The data set is described as follows: Antiproliferative activity against human MDA-MB-231 cells assessed as inhibition of cell growth measured after 48 hrs by MTT assay. In kind it is functional, cell-based. The conditions noted are these: MDA-MB-231, 48 h. Background: Tetrazolium dyes change colour on reduction, which living cells bring about.
Data set [7] deals with MDA-MB-231. The data set is described as follows: Induction of apoptosis in human MDA-MB-231 cells assessed as necrotic cells at 20 nM incubated for 24 hrs by Annexin V-FITC/PI staining based flow cytometric analysis (reference value: 0.11%). In kind it is functional.
In data set [8] the test system is MDA-MB-231. The data set is described as follows: Induction of apoptosis in human MDA-MB-231 cells assessed as viable cells at 20 nM incubated for 24 hrs by Annexin V-FITC/PI staining based flow cytometric analysis (reference value: 90.1%). Conditions: read-out: Activity. The data set is classed as functional.
The subject of data set [9] is MDA-MB-231. The data set is described as follows: Induction of apoptosis in human MDA-MB-231 cells assessed as necrotic cells at 10 nM incubated for 24 hrs by Annexin V-FITC/PI staining based flow cytometric analysis (reference value: 0.11%). The data set is classed as functional.
Data set [10] concerns MDA-MB-231. The data set is described as follows: Induction of cell cycle arrest in human MDA-MB-231 cells assessed as accumulation of cells at G2 phase at 20 nM measured after 24 hrs by PI staining by flow cytometric analysis (Rvb =18.1%). The data set is classed as functional.
Data set [11] concerns MDA-MB-231. The data set is described as follows: Induction of apoptosis in human MDA-MB-231 cells assessed as increase in cytoplasmic SMAC level at 5 to 20 nM incubated for 8 hrs by Western blotting analysis. The data set is classed as functional, cell-based. The conditions noted are these: dose 5-20 nM. (In general: A western blot detects proteins with antibodies after separation by electrophoresis.)

Data set [12] is described as follows: Toxicity in BALB/C mouse xenografted with human MDA-MB-231 cells assessed as kidney damage at 2.5 to 5 mg/kg, ip administered every 2 days measured after 3 weeks by H and E staining based analysis. The data set is classed as organism-based. Conditions: in vivo, 504 h, dose 2.5-5 mg/kg.
Data set [13] concerns MDA-MB-231. The data set is described as follows: Induction of apoptosis in human MDA-MB-231 cells assessed as total apoptotic cells at 5 to 20 nM incubated for 24 hrs by Annexin V-FITC/PI staining based flow cytometric analysis (Rvb =10.03%). In kind it is functional. Conditions: dose 5-20 nM.
For data set [14], the system named is MDA-MB-231. The data set is described as follows: Induction of apoptosis in human MDA-MB-231 cells assessed as late apoptotic cells at 10 nM incubated for 24 hrs by Annexin V-FITC/PI staining based flow cytometric analysis (reference value: 4.90%). The data set is classed as functional.
A short description of data set [15]: Toxicity in BALB/C mouse xenografted with human MDA-MB-231 cells assessed as lung damage at 2.5 to 5 mg/kg, ip administered every 2 days measured after 3 weeks by H and E staining based analysis. Conditions: in vivo, 504 h, dose 2.5-5 mg/kg. The data set is classed as organism-based.
Data set [16] relates to MDA-MB-231. The data set is described as follows: Induction of apoptosis in human MDA-MB-231 cells assessed as late apoptotic cells at 5 nM incubated for 24 hrs by Annexin V-FITC/PI staining based flow cytometric analysis (reference value: 4.90%). In kind it is functional.
The subject of the next data set is A549. The data set is described as follows: Antiproliferative activity against human A549 cells assessed as inhibition of cell growth measured after 48 hrs by MTT assay. Conditions: A549, 48 h. In kind it is functional, cell-based.
Data set [17] can be described thus: Toxicity in BALB/C mouse xenografted with human MDA-MB-231 cells assessed as spleen damage at 2.5 to 5 mg/kg, ip administered every 2 days measured after 3 weeks by H and E staining based analysis. The data set is classed as organism-based. Conditions: in vivo, 504 h, dose 2.5-5 mg/kg.
For data set [18], the system named is MDA-MB-231. The data set is described as follows: Induction of apoptosis in human MDA-MB-231 cells assessed as increase in cleaved caspase-3 level incubated for 8 hrs by Western blotting analysis. The conditions noted are these: dose 5-20 nM. The data set is classed as functional, cell-based.
Data set [19] deals with MDA-MB-231. The data set is described as follows: Antiproliferative activity against human MDA-MB-231 cells assessed as induction of ROS production at 20 nM in presence of NAC measured after 24 hrs by MTT assay. In kind it is functional, cell-based.
In data set [20] the test system is MDA-MB-231. The data set is described as follows: Induction of apoptosis in human MDA-MB-231 cells assessed as increase in Bax level incubated for 24 hrs by Western blotting analysis. Conditions: dose 5-20 nM. The data set is classed as functional, cell-based.
The test system of data set [21] is MDA-MB-231. The data set is described as follows: Induction of apoptosis in human MDA-MB-231 cells assessed as increase in Bad level incubated for 8 hrs by Western blotting analysis. The data set is classed as functional, cell-based. Conditions: dose 5-20 nM.
Data set [22] has as its system MDA-MB-231. The data set is described as follows: Induction of cell cycle arrest in human MDA-MB-231 cells assessed as accumulation of cells at S phase at 5 nM measured after 24 hrs by PI staining by flow cytometric analysis (Rvb =24.1%). The data set is classed as functional.
Data set [23] relates to MDA-MB-231. The data set is described as follows: Antiproliferative activity against human MDA-MB-231 cells assessed as effect on NO level at 25 uM incubated for 2 hrs. The data set is classed as functional, cell-based.

Turning to `CCN(CC)c1ccc2cc(C(=O)OCCCCCOc3cc4ccc(=O)oc4cc3OCCCCCCOc3no[n+]([O-])c3S(=O)(=O)c3ccccc3)c(=O)oc2c1`, the result in the data set with MDA-MB-231 [1], in the data set on MDA-MB-231 [11] and with MDA-MB-231 [23] was Active. The Activity entry in the data set on MDA-MB-231 [2] was “Dose-Dependent Effect”; with MDA-MB-231 [3] it was “Dose-Dependent Effect”; with MDA-MB-231 [5], 21.9%; in the data set on MDA-MB-231 [7], 3.93%; in the data set with MDA-MB-231 [9], 0.83%; with MDA-MB-231 [10], 21.4%. The Activity result is “Non-Toxic” in [12]; 71.69% in the data set with MDA-MB-231 [13]; 30% in the data set on MDA-MB-231 [14]; “Non-Toxic” in data set [15]; 20.4% in the data set with MDA-MB-231 [16]; “Non-Toxic” in data set [17]. Besides, the Activity entry is “Dose-Dependent Effect” in the data set with MDA-MB-231 [18], “Dose-Dependent Effect” in the data set on MDA-MB-231 [20], “Dose-Dependent Effect” with MDA-MB-231 [21] and 29.3% in the data set on MDA-MB-231 [22]. Also, the selectivity ratio in [4] was 1490. In addition, the half-inhibitory concentration (IC50) in the data set with MDA-MB-231 [6] was 8 nM; with A549, 840 nM. In addition, in the data set with MDA-MB-231 [8], the viability at 0.02 µM was 25.2%. Besides, in the data set on MDA-MB-231 [19], the result was inactive.
